These results are taken from ChEMBL document CHEMBL5608113, “Targeting of CAF-induced therapy resistance in CRC organoid-stroma co-cultures” (2024).

Common to all, as to assay type: functional, Homo sapiens
Details in all cases: Homo sapiens, read-out: Cell Viability; for viability at 10 µM: Concentration 10 uM; for viability at 1 µM: Concentration 1 uM

In experiment [1] the test system is Colon cancer organoid. The experiment in a line: Targeting of F14 CAF-induced therapy resistance in O23 CRC organoid-stroma co-culture. Cell viability is reported without Gefitinib.
Experiment [2] relates to Colon cancer organoid. The experiment in a line: Targeting of F14 CAF-induced therapy resistance in O23 CRC organoid-stroma co-culture. Cell viability is reported with Gefitinib.
The test system of experiment [3] is Colon cancer organoid. The experiment can be described thus: Targeting of F14 CAF-induced therapy resistance in O14 CRC organoid-stroma co-culture. Cell viability is reported with Gefitinib.
Experiment [4] has as its system Colon cancer organoid. The experiment can be described thus: Targeting of F14 CAF-induced therapy resistance in O14 CRC organoid-stroma co-culture. Cell viability is reported without Gefitinib.
Experiment [5] has as its system Colon cancer organoid. The experiment in a line: Targeting of F14 CAF-induced therapy resistance in O23 CRC organoid-stroma co-culture. Cell viability is reported with SN-38.

The viability is a read-out of living cells in per cent, often relative to untreated cells. Turning to `O=C(Nc1cnc(Oc2ccc(F)cc2)nc1)N1CCc2ncccc2[C@@H]1c1ccc(F)cc1` [BAY-899], the viability at 10 µM with Colon cancer organoid [1] came out at 223%; with Colon cancer organoid [2] it was 63.6%; in the experiment with Colon cancer organoid [3] it was 39.4%; in the experiment with Colon cancer organoid [4] it was 98.8%; in the experiment on Colon cancer organoid [5], 59.1%.

Turning to `CC1=C(C#N)C(c2ccc3c(c2)c(NC(=O)c2ccccc2C)nn3C)C(C#N)=C(C)N1` [BAY-974], the viability at 10 µM with Colon cancer organoid [1] was determined as 103%; in the experiment on Colon cancer organoid [2], 40.1%; in the experiment with Colon cancer organoid [3], 48.3%; in the experiment on Colon cancer organoid [4], 109%; with Colon cancer organoid [5] it was 57.9%.

As for `C[C@H](c1ccnc(Nc2nc3ccc(-c4cc(N(C)C)ncn4)cc3[nH]2)c1)N1CCN(C(=O)CC(F)(F)F)CC1` [BAY-985], the viability at 10 µM with Colon cancer organoid [1] was 160%; in the experiment with Colon cancer organoid [2] it was 84.3%; in the experiment with Colon cancer organoid [3] it was 77.2%; with Colon cancer organoid [4], 163%; in the experiment on Colon cancer organoid [5], 80.5%.

`NS(=O)(=O)c1cc(NC(=O)Cc2ccccc2)ccc1Oc1cccc(Cl)c1` [BAY-1797]: the viability at 10 µM with Colon cancer organoid [1] stood at 114%; with Colon cancer organoid [2], 48.6%; in the experiment with Colon cancer organoid [3], 51.7%; in the experiment with Colon cancer organoid [4] it was 124%; with Colon cancer organoid [5] it was 60.6%.

`CCc1ccccc1C(=O)Nc1n[nH]c2c(C)c(F)c(C3C(C#N)=C(C)N(C)C(C)=C3C#N)cc12` [BAY-3827]: the viability at 10 µM with Colon cancer organoid [1] was 47.4%; in the experiment with Colon cancer organoid [2], 30.6%; in the experiment with Colon cancer organoid [3], 24.2%; with Colon cancer organoid [4], 101%; with Colon cancer organoid [5] it was 14.5%.

With `Cn1cc(Cl)c2c(Oc3c(F)cc(Nc4cc(Cl)nc(N)n4)cc3F)ccnc21` [BAY-4900], the viability at 10 µM was determined as 107% with Colon cancer organoid [1]; 40.3% in the experiment on Colon cancer organoid [2]; 30.9% in the experiment with Colon cancer organoid [3]; 85% with Colon cancer organoid [4]; 54.4% in the experiment with Colon cancer organoid [5].

As to `Cc1c(N2CCCC2)nc2ccc(Br)cc2c1C(=O)NC[C@H](CCC(=O)O)c1ccccc1Cl` [BAY-6672], the viability at 10 µM is 81.2% with Colon cancer organoid [1]; 42.2% with Colon cancer organoid [2]; 37.9% with Colon cancer organoid [3]; 138% in the experiment with Colon cancer organoid [4]; 58.4% in the experiment with Colon cancer organoid [5].

`O=C(O)[C@H]1[C@H](Cn2nnc3ccccc3c2=O)CC[C@@H]1C(=O)c1ccc(OCCC2CCOCC2)cc1` [BAY-7598]: the viability at 1 µM worked out at 130% with Colon cancer organoid [1]; 41.8% with Colon cancer organoid [2]; 48.5% with Colon cancer organoid [3]; 122% in the experiment on Colon cancer organoid [4]; 99.1% with Colon cancer organoid [5].

As to `COc1cc(N[C@@H]2CCCC[C@]2(O)C(F)(F)F)ccc1F` [BAY-9897], the viability at 1 µM was 81.6% with Colon cancer organoid [1]; 66.7% in the experiment on Colon cancer organoid [2]; 40.2% in the experiment on Colon cancer organoid [3]; 86.4% with Colon cancer organoid [4]; 78.5% with Colon cancer organoid [5].

Take `NC(=O)c1ccc2nc(-c3ccc(C4(N)CCC4)cc3)c(-c3ccccc3)n2n1` [BAY-1125976]: the viability at 1 µM amounted to 86% in the experiment with Colon cancer organoid [1]; 38% with Colon cancer organoid [2]; 52.1% with Colon cancer organoid [3]; 152% in the experiment on Colon cancer organoid [4]; 47.7% in the experiment on Colon cancer organoid [5].

For the molecule `CC(=O)N1CCC(c2ccc(C(=O)NC3=NCCN3)cc2C(F)(F)F)CC1` [BI 0054], the viability at 10 µM with Colon cancer organoid [1] was determined as 120%; in the experiment on Colon cancer organoid [2], 54.5%; in the experiment on Colon cancer organoid [3], 17.4%; with Colon cancer organoid [4], 46.7%; with Colon cancer organoid [5], 74.4%.

Turning to `CN(C)C(=O)Cn1cc(-c2nc(C3(c4ccc(-c5cnc(N)nc5)cc4)CC3)no2)cn1` [BI 0153], the viability at 10 µM came out at 171% in the experiment with Colon cancer organoid [1]; 48.9% in the experiment with Colon cancer organoid [2]; 82.1% in the experiment with Colon cancer organoid [3]; 110% in the experiment on Colon cancer organoid [4]; 98.3% with Colon cancer organoid [5].

Turning to `COc1ccc2c(O[C@@H]3C[C@H]4C(=O)N[C@]5(C(=O)O)CC5/C=C\CCCCC[C@H](NC(=O)OC5CCCC5)C(=O)N4C3)cc(-c3csc(NC(=O)C(C)C)n3)nc2c1C` (stereo not given in full) [BI 1230], the viability at 10 µM in the experiment with Colon cancer organoid [1] came out at 141%; in the experiment on Colon cancer organoid [2], 63.1%; in the experiment on Colon cancer organoid [3], 50%; in the experiment with Colon cancer organoid [4], 152%; in the experiment on Colon cancer organoid [5] it was 77.1%.

Turning to `O=C(N[C@H]1CCCCC/C=C\C2C[C@@]2(C(=O)O)NC(=O)[C@@H]2C[C@@H](Oc3ccncc3)CN2C1=O)OC1CCCC1` (stereo not given in full) [BI 1675], the viability at 10 µM in the experiment with Colon cancer organoid [1] turned out to be 136%; in the experiment on Colon cancer organoid [2], 51%; in the experiment on Colon cancer organoid [3], 62%; with Colon cancer organoid [4] it was 102%; in the experiment with Colon cancer organoid [5] it was 89.7%.

As for `CCOCCn1cc(C(=O)Nc2ccc(-n3nc(-c4cccnc4)cc3C(F)(F)F)cn2)ccc1=O` [BI 1935], the viability at 10 µM in the experiment with Colon cancer organoid [1] was determined as 98.5%; in the experiment with Colon cancer organoid [2], 70.8%; in the experiment with Colon cancer organoid [3], 40.1%; in the experiment with Colon cancer organoid [4], 82.6%; in the experiment on Colon cancer organoid [5], 64.4%.

Turning to `C[C@H](NC(=O)c1cnc2n1[C@](C)(Cc1ccc(C#N)cc1)C(=O)N2c1cc(Cl)c(F)c(Cl)c1)C(=O)NC1(c2ccccn2)CC1` [BI 1950], the viability at 10 µM with Colon cancer organoid [1] was found to be 104%; with Colon cancer organoid [2] it was 52.2%; in the experiment with Colon cancer organoid [3], 44.4%; in the experiment on Colon cancer organoid [4] it was 125%; with Colon cancer organoid [5], 85.8%.

Turning to `O=C(Nc1ccc(-n2nc(-c3cccnc3)cc2C(F)(F)F)cn1)c1ccc(-c2ccccc2)c(F)c1` [BI 2049], the viability at 1 µM with Colon cancer organoid [1] came out at 103%; in the experiment with Colon cancer organoid [2], 32.7%; in the experiment with Colon cancer organoid [3], 24.6%; in the experiment with Colon cancer organoid [4], 132%; in the experiment on Colon cancer organoid [5], 97.9%.

With `CC(C)(C#Cc1ccc(NC(=O)COc2ccccc2C(=O)c2ccccc2)c(Cl)c1)C(=O)O` [BI 2439], the viability at 10 µM with Colon cancer organoid [1] amounted to 160%; in the experiment on Colon cancer organoid [2], 98.3%; in the experiment with Colon cancer organoid [3] it was 36.7%; in the experiment with Colon cancer organoid [4] it was 159%; in the experiment on Colon cancer organoid [5], 82.7%.

For `Cc1c(NC(=O)COc2ccc(Cl)cc2C(=O)c2cc(F)cc(C(F)(F)F)c2)ccc(C(=O)O)c1F` [BI 2540], the viability at 10 µM was found to be 132% in the experiment on Colon cancer organoid [1]; 79.4% with Colon cancer organoid [2]; 64.5% in the experiment on Colon cancer organoid [3]; 124% with Colon cancer organoid [4]; 67.8% in the experiment with Colon cancer organoid [5].

Regarding `O=C(NC[C@@H]1[C@H]2CN(C(=O)OCc3cc(C(F)(F)F)cc(C(F)(F)F)c3)C[C@@H]12)c1ccc2[nH]nnc2c1` [BI 2545], the viability at 10 µM in the experiment on Colon cancer organoid [1] came out at 142%; with Colon cancer organoid [2], 83.8%; in the experiment on Colon cancer organoid [3], 43%; with Colon cancer organoid [4], 105%; in the experiment with Colon cancer organoid [5] it was 105%.

For the molecule `Cc1nccc(COC(=O)N2C[C@@H]3[C@@H](CNC(=O)c4ccc5[nH]nnc5c4)[C@@H]3C2)n1` [BI 3017], the viability at 10 µM with Colon cancer organoid [1] was determined as 161%; in the experiment on Colon cancer organoid [2] it was 38.3%; in the experiment on Colon cancer organoid [3] it was 7.21%; in the experiment with Colon cancer organoid [4], 7.82%; in the experiment with Colon cancer organoid [5], 76%.

`CCS(=O)(=O)c1cc2cc(C[C@@](O)(CC(C)(C)c3ccc(F)cc3C(N)=O)C(F)(F)F)[nH]c2cn1` [BI 3047]: the viability at 1 µM is 139% in the experiment with Colon cancer organoid [1]; 46.6% with Colon cancer organoid [2]; 44.9% in the experiment with Colon cancer organoid [3]; 137% with Colon cancer organoid [4]; 71% with Colon cancer organoid [5].
